# In US20220160824A1, “COMPOUNDS FOR USE IN THE TREATMENT OF PARKINSON'S DISEASE” (UNIVERSITY OF THE WITWATERSRAND, JOHANNESBURG, priority 2018, published 2022):
# Columns and labels:
# [1] = test system: HEK293 cells; assay: MTT cell viability assay, HEK293 cells treated with α-Synuclein; format: cell-based, human; conditions: for cell viability after α-Synuclein treatment: 200 nM and 500 nM
# Text: The effects of treatment of cells with a specific substance or protein on cell viability can be determined by the MTT (3-(4,5-dimethylthiazol-2-yl)-2,5-diphenyltetrazolium bromide) assay (Riss et al., 2016). MTT is a tetrazolium salt that is yellow in colour that is converted to the purple formazan crystals by the mitochondrial enzyme succinate dehydrogenase (Stockert et al., 2012). The succinate dehydrogenase is only active in viable cells and therefore only viable cells will convert MTT to formazan (Stockert et al., 2012). The MTT assay was chosen over other cell viability assays, such as the ATP assay, the resoazurin reduction assay and the protease viability marker assay, due to its high throughput screening. For this study, HEK293 cells were first seeded at 1.4×10^4 cells per well in a 24-well plate while SH-SY5Y cells were seeded at 1.8×10^4 due to a slower growth rate. The cells were then incubated overnight to allow reattachment. Cells were then treated with 200 nM and 500 nM α-Synuclein, in order to induce a PD-like state. Following treatment, the cells were incubated for 48 hours to determine the effects of α-Synuclein on cell viability […]. The known apoptosis inducer, protocatechuic acid (PCA) was used as the positive control. Following incubation, 200 μl of […] was then added to each well and incubated for 2 hours at 37° C. to allow the formation of formazan crystals. The remaining MTT was discarded and the formazan crystals were dissolved by the addition of 200 μl dimethyl sulfoxide (DMSO). The samples were then added to a 96-well plate at 100 μl in duplicates and the absorbance was read at 570 nm using an ELISA plate reader. High absorbance is indicative of a high number of viable cells.
# Statistical evaluation of the data was conducted by performing the […] with a confidence interval of 95% and as a result, results were considered significant when the p-value was lower than 0.05 was considered significant (*p<0.05, **p<0.01 and ***p<0.001) (Johnston, 1970).
# [2] = test system: SH-SY5Y cells; assay: MTT cell viability assay, SH-SY5Y cells treated with α-Synuclein; format: cell-based; conditions: for cell viability after α-Synuclein treatment: 200 nM and 500 nM
# Text: The HEK293 cell line was used as it is commonly used in Parkinson's disease (PD) research (Schlachetzki et al., 2013). The cell culture media was made up from Dulbecco's Modified Eagle Medium (DMEM) (Hyclone) and Ham's F12 with a ratio of 1:1. The mixture was supplement with 1% penicillin/streptomycin (P/S) and 15% foetal bovine serum […] to create a supplemented media that will provide the cells with essential nutrients that include growth factors and P/S to prevent contamination with bacteria and fungi. The nutrient media was renewed when it was required. The cells were cultured at in an incubator, that maintains the humidity, pH, at 37° C. and 5% CO2 atmospheric composition to mimic in vivo conditions. Once the cells reached a confluency of 80%, they were passaged by washing with phosphate-buffered saline (PBS) followed by resuspension by the addition of trypsin-EDTA. Once the cells were re-suspended media was added to inactivate the trypsin and the cell suspension was diluted into a new flask. Fresh media was added to both flasks. Both transfected and non-transfected cells were harvested for further applications. […] SH-SY5Y cells were also received after transfection was confirmed. The cells were maintained in the same conditions as the HEK293 cells. The SH-SY5Y cells were used for the […] cell viability assay. LRP::FLAG overexpressing HEK293 cells in the presence of 1-Methyl-4-phenylpyridinium iodide (MPP+), a PD inducer, was also investigated. Late stage colorectal carcinoma cells (DLD-1) cells were used for certain confocal microscopy studies with parkin protein.
# The effects of treatment of cells with a specific substance or protein on cell viability can be determined by the MTT (3-(4,5-dimethylthiazol-2-yl)-2,5-diphenyltetrazolium bromide) assay (Riss et al., 2016). […] The samples were then added to a 96-well plate at 100 μl in duplicates and the absorbance was read at 570 nm using an ELISA plate reader. High absorbance is indicative of a high number of viable cells. […]
# [3] = target: 37 kDa/67 kDa laminin receptor precursor/high affinity laminin receptor (LRP/LR) (human) (UniProt P08865); assay: cell-based or functional assay
# Sequence of parkin (O60260 whole entry): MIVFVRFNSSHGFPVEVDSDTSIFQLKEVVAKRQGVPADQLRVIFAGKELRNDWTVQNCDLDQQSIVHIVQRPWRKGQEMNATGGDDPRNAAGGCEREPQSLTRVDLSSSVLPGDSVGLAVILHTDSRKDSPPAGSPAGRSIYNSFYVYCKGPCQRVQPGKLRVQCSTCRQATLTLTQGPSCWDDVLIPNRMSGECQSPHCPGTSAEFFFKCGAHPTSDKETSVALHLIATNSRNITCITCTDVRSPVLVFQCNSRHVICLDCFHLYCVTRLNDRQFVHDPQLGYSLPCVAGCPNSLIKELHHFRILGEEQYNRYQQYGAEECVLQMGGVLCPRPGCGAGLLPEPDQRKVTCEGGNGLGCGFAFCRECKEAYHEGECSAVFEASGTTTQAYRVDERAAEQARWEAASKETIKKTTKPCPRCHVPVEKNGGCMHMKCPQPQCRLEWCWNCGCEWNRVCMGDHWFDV
compound,measurement,setting,value
"O=C(O)c1ccc(O)c(O)c1 [PCA, protocatechuic acid]",cell viability with positive control,[1]; HEK293 transfected and non-transfected cell lines,significant decrease
same,cell viability with positive control,[2]; SH-SY5Y transfected and non-transfected cell lines,significant decrease
parkin (from UniProt O60260 1-465) (enzyme),"percent of LRP colocalizing with parkin, confocal microscopy, DLD-1 cells overexpressing LRP::FLAG (total LRP stained)",[3],22%
same,"percent of LRP/LR colocalizing with parkin, confocal microscopy, DLD-1 cells",[3],54%
same,"percent of parkin colocalizing with LRP, confocal microscopy, DLD-1 cells overexpressing LRP::FLAG (total LRP stained)",[3],99%
same,"percent of parkin colocalizing with LRP/LR, confocal microscopy, DLD-1 cells",[3],59%
α-Synuclein,cell viability after α-Synuclein treatment,"[1]; HEK293 non-transfected cells, 48 hours",decreased significantly
same,cell viability after α-Synuclein treatment,[1]; LRP::FLAG overexpressing and non-transfected HEK293 cells,slight decrease
same,cell viability after α-Synuclein treatment,[2]; LRP::FLAG overexpressing and non-transfected SH-SY5Y cells,no decrease
same,cell viability after α-Synuclein treatment,"[2]; SH-SY5Y non-transfected cells, 48 hours",no significant increase or decrease
